# Assay results taken from US4335249A, “Herbicidal diphenyl ethers, sulfides, sulfoxides and sulfones” (Rohm and Haas Company, priority 1976, dated 1982).
# Assays:
# Type in all cases: in vivo
# wild oats (Avena fatua) [1] = experiment: Postemergence herbicidal activity, wild oats; settings: for % Control, Wild Oats: Postemergence; for pest or weed control at 2241.7 g/ha: Avena fatua, post-emergence, 336 h, Post, 2 lb/A, read-out: % control, Wild oat
# In short: (§1)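 Seeds were sown in soil flats and sprayed either right after planting (preemergence) or two weeks after germination (postemergence). Compound in acetone diluted with water was applied at a 50 gal/acre carrier volume at rates in lb/A. About two weeks later, average percent control was scored as percent of plants killed.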
# [2] = test system: velvetleaf (Abutilon theophrasti); experiment: Preemergence herbicidal activity, velvetleaf; settings: for % control, Velvetleaf: Preemergence; for pest or weed control at 2241.7 g/ha: Abutilon theophrasti, pre-emergence, 336 h, Pre, 2 lb/A
# In short: as §1
# rice (Oryza sativa) [3] = experiment: Postemergence herbicidal activity, rice
# Method: (§2) Using the procedure described below, compounds of the invention are evaluated for control of several of the following plant species:
# (§3) The following est procedure is employed. Seeds of selected crops and weeds are planted in soil in flats. For preemergence tests, the flats are treated with the test compound immediately after the planting. For postemergence tests, the seeds are allowed to germinate, and after two weeks the flats are treated with the test compound. The compound to be evaluated is dissolved in acetone, diluted with water, and sprayed over the flats using a carrier volume equivalent to 50 gallons per acre at the rate of application (pounds per acre, lb/A.) specified in the tables. About two weeks after the application of the test compound, the state of growth of the plants is observed and the phytotoxic effect of the compound is evaluated. Tables III and IV give the average percent control achieved by test compounds in terms of the percent of the plants which are killed by the compounds.
# rice (Oryza sativa) [4] = experiment: Preemergence herbicidal activity, rice
# Method: as §2, §3
# [5] = test system: barnyardgrass (Echinochloa crusgalli); experiment: Postemergence herbicidal activity, barnyardgrass; settings: for % control, Barnyardgrass: Postemergence; for pest or weed control at 2241.7 g/ha: Echinochloa crus-galli, post-emergence, 336 h, Post, 2 lb/A
# In short: (§4)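 Sown flats got a foliar or soil spray of compound in water-diluted acetone (carrier equivalent to 50 gallons/acre, rate in pounds per acre), given on the day of planting or, postemergence, once seedlings were two weeks old.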
# [6] = test system: downybrome (Bromus tectorum); experiment: Postemergence herbicidal activity, downybrome; settings: for % control, Downybrome: Postemergence; for pest or weed control at 2241.7 g/ha: Bromus tectorum, post-emergence, 336 h, Post, 2 lb/A
# In short: as §1
# [7] = test system: crabgrass (Digitaria spp.); experiment: Preemergence herbicidal activity, crabgrass
# Method: as §2, §3
# soybean (Glycine max) [8] = experiment: Postemergence herbicidal activity, soybean
# Method: as §2, §3
# wheat (Triticum sativum) [9] = experiment: Postemergence herbicidal activity, wheat
# Method: as §2, §3
# wild oats (Avena fatua) [10] = experiment: Preemergence herbicidal activity, wild oats; settings: for % Control, Wild Oats: Preemergence; for pest or weed control at 2241.7 g/ha: Avena fatua, pre-emergence, 336 h, Pre, 2 lb/A, read-out: % control, Wild oat
# In short: as §1
# corn (Zea mays) = experiment: Preemergence herbicidal activity, corn
# Method: as §2, §3
# [11] = test system: tomato (Lycopersicon esculentum); experiment: Preemergence herbicidal activity, tomato; settings: for % control, Tomato: Preemergence; for pest or weed control at 2241.7 g/ha: Solanum lycopersicum, pre-emergence, 336 h, Pre, 2 lb/A
# In short: as §1
# [12] = test system: tomato (Lycopersicon esculentum); experiment: Postemergence herbicidal activity, tomato; settings: for % control, Tomato: Postemergence; for pest or weed control at 2241.7 g/ha: Solanum lycopersicum, post-emergence, 336 h, Post, 2 lb/A
# In short: as §1
# [13] = test system: downybrome (Bromus tectorum); experiment: Preemergence herbicidal activity, downybrome; settings: for % control, Downybrome: Preemergence; for pest or weed control at 2241.7 g/ha: Bromus tectorum, pre-emergence, 336 h, Pre, 2 lb/A
# In short: as §1
# wheat (Triticum sativum) [14] = experiment: Preemergence herbicidal activity, wheat
# Method: as §2, §3
# [15] = test system: barnyardgrass (Echinochloa crusgalli); experiment: Preemergence herbicidal activity, barnyardgrass; settings: for % control, Barnyardgrass: Preemergence; for pest or weed control at 2241.7 g/ha: Echinochloa crus-galli, pre-emergence, 336 h, Pre, 2 lb/A
# In short: as §4
# foxtail (Setaria spp.) [16] = experiment: Postemergence herbicidal activity, foxtail; settings: for % control, Foxtail: Postemergence; for pest or weed control at 2241.7 g/ha: Setaria, post-emergence, 336 h, Post, 2 lb/A
# In short: as §1
# foxtail (Setaria spp.) [17] = experiment: Preemergence herbicidal activity, foxtail; settings: for % control, Foxtail: Preemergence; for pest or weed control at 2241.7 g/ha: Setaria, pre-emergence, 336 h, Pre, 2 lb/A
# In short: as §1
# soybean (Glycine max) [18] = experiment: Preemergence herbicidal activity, soybean
# Method: as §2, §3
# [19] = test system: yellow nutsedge (Cyperus esculentus); experiment: Postemergence herbicidal activity, yellow nutsedge; settings: Cyperus, post-emergence, 336 h, 2 lb/A
# In short: as §1
# [20] = test system: morningglory (Ipomoca spp.); experiment: Preemergence herbicidal activity, morningglory; settings: Ipomoea, pre-emergence, 336 h, 2 lb/A
# In short: as §1
# marigold (Tagetes spp.) [21] = experiment: Postemergence herbicidal activity, marigold; settings: post-emergence, 336 h, 2 lb/A
# In short: as §1
# [22] = test system: morningglory (Ipomoca spp.); experiment: Postemergence herbicidal activity, morningglory; settings: Ipomoea, post-emergence, 336 h, 2 lb/A
# In short: as §1
# marigold (Tagetes spp.) [23] = experiment: Preemergence herbicidal activity, marigold; settings: pre-emergence, 336 h, 2 lb/A
# In short: as §1
# [24] = test system: cocklebur (Xanthium pensylvanicum); experiment: Postemergence herbicidal activity, cocklebur; settings: Xanthium strumarium, post-emergence, 336 h, 2 lb/A
# In short: as §1
# [25] = test system: cocklebur (Xanthium pensylvanicum); experiment: Preemergence herbicidal activity, cocklebur; settings: Xanthium strumarium, pre-emergence, 336 h, 2 lb/A
# In short: as §1
# [26] = test system: yellow nutsedge (Cyperus esculentus); experiment: Preemergence herbicidal activity, yellow nutsedge; settings: Cyperus, pre-emergence, 336 h, 2 lb/A
# In short: as §1
# [27] = test system: velvetleaf (Abutilon theophrasti); experiment: Postemergence herbicidal activity, velvetleaf; settings: Abutilon theophrasti, post-emergence, 336 h, 2 lb/A
# In short: as §4
structure (smiles),measurement,setting,value
"CCOC(=O)C(C)Oc1ccc(Oc2ccc(C(F)(F)F)cc2Cl)cc1 (stereo not shown) [Example 1, Ethyl 2-[4-(2-chloro-4-trifluoromethylphenoxy)phenoxy] propionate]","% Control, Wild Oats",wild oats (Avena fatua) [1]; 1/2 lb/A (Table III),100%
same,"% Control, Wild Oats",wild oats (Avena fatua) [1]; 1 lb/A (Table III),100%
same,"% Control, Wild Oats",wild oats (Avena fatua) [1]; 2 lb/A (Table III),100%
same,"% control, Velvetleaf",[2]; 1/2 lb/A (Table III),0%
same,"% control, Velvetleaf",[2]; 1 lb/A (Table III),0%
same,"% control, Velvetleaf",[2]; 2 lb/A (Table III),0%
same,"% Control, Rice",rice (Oryza sativa) [3]; 1/2 lb/A (Table III),70%
same,"% Control, Rice",rice (Oryza sativa) [3]; 1 lb/A (Table III),99%
same,"% Control, Rice",rice (Oryza sativa) [3]; 2 lb/A (Table III),90%
same,"% Control, Rice",rice (Oryza sativa) [4]; 1/2 lb/A (Table III),0%
same,"% Control, Rice",rice (Oryza sativa) [4]; 1 lb/A (Table III),80%
same,"% Control, Rice",rice (Oryza sativa) [4]; 2 lb/A (Table III),100%
same,"% control, Barnyardgrass",[5]; 1/2 lb/A (Table III),100%
same,"% control, Barnyardgrass",[5]; 1 lb/A (Table III),100%
same,"% control, Barnyardgrass",[5]; 2 lb/A (Table III),100%
same,"% control, Downybrome",[6]; 1/2 lb/A (Table III),70%
same,"% control, Downybrome",[6]; 1 lb/A (Table III),80%
same,"% control, Downybrome",[6]; 2 lb/A (Table III),90%
same,"% Control, Crabgrass",[7]; 1/2 lb/A (Table III),100%
same,"% Control, Crabgrass",[7]; 1 lb/A (Table III),100%
same,"% Control, Crabgrass",[7]; 2 lb/A (Table III),100%
same,"% Control, Soybean",soybean (Glycine max) [8]; 1/2 lb/A (Table III),20%
same,"% Control, Soybean",soybean (Glycine max) [8]; 1 lb/A (Table III),30%
same,"% Control, Soybean",soybean (Glycine max) [8]; 2 lb/A (Table III),40%
same,"% Control, Wheat",wheat (Triticum sativum) [9]; 1/2 lb/A (Table III),80%
same,"% Control, Wheat",wheat (Triticum sativum) [9]; 1 lb/A (Table III),90%
same,"% Control, Wheat",wheat (Triticum sativum) [9]; 2 lb/A (Table III),95%
same,"% Control, Wild Oats",wild oats (Avena fatua) [10]; 1/2 lb/A (Table III),0%
same,"% Control, Wild Oats",wild oats (Avena fatua) [10]; 1 lb/A (Table III),60%
same,"% Control, Wild Oats",wild oats (Avena fatua) [10]; 2 lb/A (Table III),99%
same,"% Control, Corn",corn (Zea mays); 1/2 lb/A (Table III),0%
same,"% Control, Corn",corn (Zea mays); 1 lb/A (Table III),60%
same,"% Control, Corn",corn (Zea mays); 2 lb/A (Table III),99%
same,"% control, Tomato",[11]; 1/2 lb/A (Table III),0%
same,"% control, Tomato",[11]; 1 lb/A (Table III),0%
same,"% control, Tomato",[11]; 2 lb/A (Table III),0%
same,"% control, Tomato",[12]; 1/2 lb/A (Table III),10%
same,"% control, Tomato",[12]; 1 lb/A (Table III),30%
same,"% control, Tomato",[12]; 2 lb/A (Table III),80%
same,"% control, Downybrome",[13]; 1/2 lb/A (Table III),0%
same,"% control, Downybrome",[13]; 1 lb/A (Table III),80%
same,"% control, Downybrome",[13]; 2 lb/A (Table III),90%
same,"% Control, Wheat",wheat (Triticum sativum) [14]; 1/2 lb/A (Table III),0%
same,"% Control, Wheat",wheat (Triticum sativum) [14]; 1 lb/A (Table III),0%
same,"% Control, Wheat",wheat (Triticum sativum) [14]; 2 lb/A (Table III),0%
same,"% control, Barnyardgrass",[15]; 1/2 lb/A (Table III),99%
same,"% control, Barnyardgrass",[15]; 1 lb/A (Table III),100%
same,"% control, Barnyardgrass",[15]; 2 lb/A (Table III),100%
same,"% control, Foxtail",foxtail (Setaria spp.) [16]; 1/2 lb/A (Table III),100%
same,"% control, Foxtail",foxtail (Setaria spp.) [16]; 1 lb/A (Table III),100%
same,"% control, Foxtail",foxtail (Setaria spp.) [16]; 2 lb/A (Table III),100%
same,"% control, Foxtail",foxtail (Setaria spp.) [17]; 1/2 lb/A (Table III),100%
same,"% control, Foxtail",foxtail (Setaria spp.) [17]; 1 lb/A (Table III),100%
same,"% control, Foxtail",foxtail (Setaria spp.) [17]; 2 lb/A (Table III),100%
same,"% Control, Soybean",soybean (Glycine max) [18]; 1/2 lb/A (Table III),0%
same,"% Control, Soybean",soybean (Glycine max) [18]; 1 lb/A (Table III),0%
same,"% Control, Soybean",soybean (Glycine max) [18]; 2 lb/A (Table III),0%
CCOC(=O)C(CC)Oc1ccc(Oc2ccc(C(F)(F)F)cc2Cl)cc1 (stereo not shown) [Example 20],pest or weed control at 2241.7 g/ha,[19],20%
same,pest or weed control at 2241.7 g/ha,wild oats (Avena fatua) [1],100%
same,pest or weed control at 2241.7 g/ha,[2],0%
same,pest or weed control at 2241.7 g/ha,[20],0%
same,pest or weed control at 2241.7 g/ha,[5],100%
same,pest or weed control at 2241.7 g/ha,marigold (Tagetes spp.) [21],0%
same,pest or weed control at 2241.7 g/ha,[6],30%
same,pest or weed control at 2241.7 g/ha,[22],0%
same,pest or weed control at 2241.7 g/ha,marigold (Tagetes spp.) [23],0%
same,pest or weed control at 2241.7 g/ha,wild oats (Avena fatua) [10],40%
same,pest or weed control at 2241.7 g/ha,[11],0%
same,pest or weed control at 2241.7 g/ha,[12],30%
same,pest or weed control at 2241.7 g/ha,[13],90%
same,pest or weed control at 2241.7 g/ha,[24],0%
same,pest or weed control at 2241.7 g/ha,[15],99%
same,pest or weed control at 2241.7 g/ha,[25],0%
same,pest or weed control at 2241.7 g/ha,[26],0%
same,pest or weed control at 2241.7 g/ha,foxtail (Setaria spp.) [16],100%
same,pest or weed control at 2241.7 g/ha,foxtail (Setaria spp.) [17],100%
same,pest or weed control at 2241.7 g/ha,[27],50%
CC(Oc1ccc(Oc2ccc(C(F)(F)F)cc2Cl)cc1)C(=O)OCCN(C)C (stereo not shown) [Example 31],pest or weed control at 2241.7 g/ha,[19],0%
same,pest or weed control at 2241.7 g/ha,wild oats (Avena fatua) [1],99%
same,pest or weed control at 2241.7 g/ha,[2],0%
same,pest or weed control at 2241.7 g/ha,[20],70%
same,pest or weed control at 2241.7 g/ha,[5],100%
same,pest or weed control at 2241.7 g/ha,marigold (Tagetes spp.) [21],40%
same,pest or weed control at 2241.7 g/ha,[6],100%
same,pest or weed control at 2241.7 g/ha,[22],80%
same,pest or weed control at 2241.7 g/ha,marigold (Tagetes spp.) [23],0%
same,pest or weed control at 2241.7 g/ha,wild oats (Avena fatua) [10],40%
same,pest or weed control at 2241.7 g/ha,[11],0%
same,pest or weed control at 2241.7 g/ha,[12],90%
same,pest or weed control at 2241.7 g/ha,[13],30%
same,pest or weed control at 2241.7 g/ha,[24],60%
same,pest or weed control at 2241.7 g/ha,[15],100%
same,pest or weed control at 2241.7 g/ha,[25],0%
same,pest or weed control at 2241.7 g/ha,[26],0%
same,pest or weed control at 2241.7 g/ha,foxtail (Setaria spp.) [16],100%
same,pest or weed control at 2241.7 g/ha,foxtail (Setaria spp.) [17],100%
same,pest or weed control at 2241.7 g/ha,[27],80%
